The values that follow are results of earlier work, collected in patent publication US7786119B2, “Drug conjugates of ion channel modulating compounds” (Cardiome Pharma Corp., priority 2004, dated 2010).

The conditions of data set [1]: optically pure d-sotalol; SWORD study.

In the case of `CCCCCCCN(CC)CCCC(O)c1ccc(NS(C)(=O)=O)cc1` (stereo not drawn) [ibutilide], the “risk of ventricular proarrhythmia” value (estimated) is roughly 4.4%. Further, where the note is “in vivo”, the “patients requiring cardioversion for refractory ventricular arrhythmias” value is reported as roughly 1.7%.
For `CC(C)NC[C@@H](O)c1ccc(NS(C)(=O)=O)cc1` [d-sotalol], the “increased mortality compared to placebo” value in data set [1] is 65%.
